The supplement of paper PMC11451515

Tested on: P12-Ichikawa
Test: cell viability relative to DMSO control; higher = less cytotoxic
Settings: 48 h
Summary of the method: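 Viability is a per-plate percentage relative to DMSO wells, with cell-free wells as background. CellTiter-Glo One luminescence was read after 48 h at 37°C on 1536-well plates (5 μl) of NOMO1 or SEM (500 cells/well) or P12-Ichikawa (1000 cells/well) leukemia cells. The cells had been adapted for at least four passages in each medium and pin-dosed with library compounds in DMSO from 47 μM to 0.79 nM in 11 threefold steps.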

[1] = HPLM + 10% dialyzed FBS, 0.000781 µM
[2] = HPLM + 10% dialyzed FBS, 0.00234 µM
[3] = HPLM + 10% dialyzed FBS, 0.00702 µM
[4] = HPLM + 10% dialyzed FBS, 0.0211 µM
[5] = HPLM + 10% dialyzed FBS, 0.0632 µM
[6] = HPLM + 10% dialyzed FBS, 0.19 µM
[7] = HPLM + 10% dialyzed FBS, 0.569 µM
[8] = HPLM + 10% dialyzed FBS, 1.71 µM
[9] = HPLM + 10% dialyzed FBS, 5.12 µM
[10] = HPLM + 10% dialyzed FBS, 15.4 µM
[11] = HPLM + 10% dialyzed FBS, 46.1 µM
[12] = RPMI 5 mM glucose + 10% FBS, 0.000781 µM
[13] = RPMI 5 mM glucose + 10% FBS, 0.00234 µM
[14] = RPMI 5 mM glucose + 10% FBS, 0.00702 µM
[15] = RPMI 5 mM glucose + 10% FBS, 0.0211 µM
[16] = RPMI 5 mM glucose + 10% FBS, 0.0632 µM
[17] = RPMI 5 mM glucose + 10% FBS, 0.19 µM
[18] = RPMI 5 mM glucose + 10% FBS, 0.569 µM
[19] = RPMI 5 mM glucose + 10% FBS, 1.71 µM
[20] = RPMI 5 mM glucose + 10% FBS, 5.12 µM
[21] = RPMI 5 mM glucose + 10% FBS, 15.4 µM
[22] = RPMI 5 mM glucose + 10% FBS, 46.1 µM
[23] = RPMI 5 mM glucose + 10% dialyzed FBS, 0.000781 µM
[24] = RPMI 5 mM glucose + 10% dialyzed FBS, 0.00234 µM
[25] = RPMI 5 mM glucose + 10% dialyzed FBS, 0.00702 µM
[26] = RPMI 5 mM glucose + 10% dialyzed FBS, 0.0211 µM
[27] = RPMI 5 mM glucose + 10% dialyzed FBS, 0.0632 µM
[28] = RPMI 5 mM glucose + 10% dialyzed FBS, 0.19 µM
[29] = RPMI 5 mM glucose + 10% dialyzed FBS, 0.569 µM
[30] = RPMI 5 mM glucose + 10% dialyzed FBS, 1.71 µM
[31] = RPMI 5 mM glucose + 10% dialyzed FBS, 5.12 µM
[32] = RPMI 5 mM glucose + 10% dialyzed FBS, 15.4 µM
[33] = RPMI 5 mM glucose + 10% dialyzed FBS, 46.1 µM

SMILES | cell viability [1] | cell viability [2] | cell viability [3] | cell viability [4] | cell viability [5] | cell viability [6] | cell viability [7] | cell viability [8] | cell viability [9] | cell viability [10] | cell viability [11] | cell viability [12] | cell viability [13] | cell viability [14] | cell viability [15] | cell viability [16] | cell viability [17] | cell viability [18] | cell viability [19] | cell viability [20] | cell viability [21] | cell viability [22] | cell viability [23] | cell viability [24] | cell viability [25] | cell viability [26] | cell viability [27] | cell viability [28] | cell viability [29] | cell viability [30] | cell viability [31] | cell viability [32] | cell viability [33]
Cc1cc(C(=O)N2CCN(c3cccc(Cl)c3)CC2)n(-c2ccccc2)n1 | 109% | 107% | 103% | 107% | 103% | 103% | 105% | 50.2% | 23.9% | 10.1% | 12.5% | 105% | 113% | 102% | 105% | 101% | 90.2% | 101% | 80.5% | 36.8% | 10.4% | 16.6% | 101% | 92.8% | 105% | 104% | 103% | 91.2% | 95.5% | 70.1% | 40.9% | 20.5% | 20.4%
Cn1c(=O)n(-c2ccc(C(C)(C)C#N)cc2)c2c3cc(-c4cnc5ccccc5c4)ccc3ncc21 | 108% | 120% | 113% | 105% | 110% | 98% | 92.1% | 43.2% | 18.2% | 13.3% | 17.6% | 114% | 108% | 106% | 90.6% | 88.2% | 82.7% | 67.6% | 67.2% | 42.1% | 10.7% | 12.1% | 110% | 117% | 111% | 105% | 101% | 82% | 81.1% | 57% | 33.4% | 15.3% | 16.1%
C[S+](=O)([O-])c1ccc(-c2cnc(N)c(C(=O)Nc3ccccc3)n2)cc1 | 99.6% | 104% | 107% | 107% | 117% | 119% | 118% | 118% | 114% | 88.4% | 87.2% | 103% | 119% | 111% | 112% | 123% | 122% | 116% | 121% | 114% | 76.9% | 80.5% | 104% | 117% | 120% | 120% | 121% | 115% | 124% | 114% | 117% | 72.6% | 69.7%
CCCCCCCCCC(=O)N[C@@H](Cc1c[nH]c2ccccc12)C(=O)N[C@H](CC(N)=O)C(=O)N[C@@H](CC(=O)O)C(=O)N[C@@H]1C(=O)NCC(=O)N[C@@H](CCCN)C(=O)N[C@@H](CC(=O)O)C(=O)N[C@H](C)C(=O)N[C@@H](CC(=O)O)C(=O)NCC(=O)N[C@H](CO)C(=O)N[C@@H]([C@@H](C)CC(=O)O)C(=O)N[C@@H](CC(=O)c2ccccc2N)C(=O)O[C@@H]1C | 116% | 122% | 112% | 123% | 121% | 122% | 126% | 123% | 122% | 124% | 129% | 106% | 111% | 113% | 121% | 131% | 127% | 126% | 129% | 125% | 125% | 4.51% | 106% | 111% | 110% | 113% | 133% | 116% | 117% | 126% | 121% | 131% | 115%
C[C@@H](NC(=O)c1ncnc(N)c1Cl)c1ncc(C(=O)Nc2cc(C(F)(F)F)c(Cl)cn2)s1 | 124% | 119% | 121% | 123% | 120% | 122% | 116% | 115% | 116% | 104% | 92.7% |  |  |  |  |  |  |  |  |  |  |  |  |  |  |  |  |  |  |  |  |  | 
COc1ccc2c(c1)c(CC(=O)OCC(=O)O)c(C)n2C(=O)c1ccc(Cl)cc1 | 119% | 126% | 118% | 113% | 116% | 114% | 112% | 118% | 112% | 116% | 108% |  |  |  |  |  |  |  |  |  |  |  | 120% | 125% | 116% | 139% | 116% | 119% | 120% | 113% | 115% | 113% | 107%
COc1ncnc(N[S+](=O)([O-])c2ccc(N)cc2)c1OC | 113% | 117% | 116% | 112% | 109% | 92.6% | 79.8% | 72% | 25.8% | 22.2% | 27% | 115% | 111% | 116% | 124% | 101% | 85.3% | 73.3% | 59.3% | 43.8% | 12.9% | 11.6% | 108% | 116% | 113% | 103% | 97.1% | 86.3% | 66.6% | 53.8% | 39.4% | 18.7% | 14.8%
CN(C)CC[C@H](c1ccc(Cl)cc1)c1ccccn1 | 83.7% | 78.9% | 84.2% | 84.8% | 90.7% | 90.3% | 85.8% | 90.9% | 87.1% | 86% | 89.7% | 76.9% | 78% | 75.6% | 78.9% | 80.8% | 80.8% | 90.4% | 85.2% | 84.1% | 81.2% | 82.3% | 69.9% | 81.6% | 73.6% | 83.9% | 86.2% | 80.9% | 78.1% | 78.8% | 76.9% | 82.3% | 77.5%
